The record followed here is publication PMC9972480, “Synthesis of Quinoline and Dihydroquinoline Embelin Derivatives as Cardioprotective Agents” (Journal of Natural Products, 2023).

The subject of one data set is ROS in H9c2 cells. Nature of the data set: Intracellular ROS levels, DCFH-DA assay. Conditions: for ROS production on co-treatment with DOX: compound 20 μM + DOX 1 μM, 24 h, vs DOX-treated cells. The format is cell-based, rat. The protocol: Oxidative stress is produced by an imbalance between radical oxygen species (ROS) formation and endogenous antioxidant activation in reaction to cell injury, leading to myocardial toxicity. Accordingly, DOX-induced ROS production in the H9c2 cells was quantified with the DCFH-DA fluorogenic dye. […] No effects on ROS production were observed when compounds were incubated alone with cells. […] The inhibitory effects of embelin derivatives were similar to those induced by N-acetyl-cysteine (NAC), a well-known antioxidant.
Figure 5 Derivatives 4i, 6a, 6d, 6k, and 6m reduced ROS levels produced by DOX in H9c2 cells. Levels of ROS in H9c2 cells were measured fluorometrically after treatment with DOX (1 μM) alone or co-treatment with N-acetyl cysteine (NAC, 1 mM) or selected derivatives (20 μM) for 24 h, using the 2′,7′-dichlorfluorescein-diacetate (DCFH-DA) assay. Values are expressed as mean ± SD with respect to DOX-treated cells (n = 3). ****p < 0.0001 vs DOX-treated cells.
Intracellular ROS levels in H9c2 cells were evaluated by monitoring the oxidation of 2′,7′-dichlorfluorescein-diacetate (DCFH-DA) (Sigma) to fluorescent dichlorofluorescein. Cells were treated with DOX (1 μM) in the absence or presence of compounds or NAC as ROS inhibitor (1 mM) (Sigma). Then, cells were incubated with 10 μM DCFH-DA at 37 °C in the dark for 30 min. ROS level was fluorimetrically evaluated at 485/550 nm during 24 h.

The test system of data set [1] is MCF-7 human breast tumor cells. Nature of the data set: Effect on chemotherapeutic activity of DOX, MTT. Particulars: MCF-7 cells, compound 20 μM + DOX 1 μM, 24 h. The format is cell-based. The protocol: Next, cytotoxicity of the selected compounds was also tested in MCF-7 breast cancer cells to disconfirm that protective effects might antagonize the antitumor effects of doxorubicin.
Figure 4 Effects of derivatives 4i, 6a, 6d, 6e, 6k, and 6m on the chemotherapeutic activity of DOX in MCF-7 human breast tumor cells. Cells were co-treated with selected compounds at 20 μM and DOX (1 μM) for 24 h. Cell viability was measured by MTT assay. Results are reported as mean of cell viability ± SD (n = 3). ****p < 0.0001 vs DOX-treated cells.
(§1) Cell viability was assessed by conducting an MTT [3-(4,5-dimethylthiazol-2-yl)-2,5-diphenyltetrazolium bromide dye] assay. Briefly, J 774A.1, H9c2, and MCF7 cells were seeded in 96-well plates for 24 h. Then, cells were treated with DOX in the absence or presence of compounds. MTT (Sigma) reagent was added to the medium for 1 h at 37 °C. Then, the formazan was dissolved in dimethyl sulfoxide (DMSO, 100 μL). Absorbance was measured at 540 nm with a microplate reader (BMG Labtech).

Data set [2] is described as follows: MTT cell viability assay (cytotoxicity) in J774 macrophages. The class given is cell-based, murine. Particulars: mouse. The protocol: (§2) The potential cytotoxicity of embelin (1) together with derivatives (4a–4m, 5a–5d, 6a–6m) was tested in cardiomyocytes and macrophages in order to ensure that compounds lack toxicity also in immune cells. Cell viability was determined by the MTT assay.[58] Four dihydroquinoline derivatives (4b, 4f, 4i, and 4m) and six quinoline compounds (6a, 6d, 6e, 6i, 6k, and 6m) maintained higher viable cell rates in both types of cells. IC50 values of these derivatives were higher than 40 μM and were selected for further analysis.
(§3) J774A.1 murine macrophage cells, H9c2 embryonic rat heart-derived cells, and MCF-7 breast cancer cells were purchased from American Type Cell Culture (ATCC, Manassas, VA, USA). Cells were cultured in Dulbecco’s modified Eagle medium with 10% fetal bovine serum and 1% penicillin/streptomycin (Lonza) and were maintained at 37 °C in a humidified incubator containing 5% CO2.
as §1
(In general: Formazan colour is commonly taken as a measure of viable cells.)

Data set [3] in a line: MTT cell viability assay (cytotoxicity) in H9c2 cardiomyocytes. The class given is cell-based, rat. Particulars: rat, H9c2 cardiomyocytes, 24 h, MTT; for IC50 at 24 h: H9c2 cardiomyocytes (embryonic heart-derived cells), stated for both types of cells; for viability at 24 h, 10 µM / viability at 24 h, 20 µM: mean ± SD, n = 3. The protocol:
as §2, §3, §1

In a further data set the test system is J774 macrophages. The data set is described as follows: MTT cell viability assay (cytotoxicity) in J774 macrophages. The format is cell-based, murine. The protocol:
as §2, §3, §1

The subject of another data set is H9c2 cardiomyocytes. Nature of the data set: MTT cell viability assay (cytotoxicity) in H9c2 cardiomyocytes. The class given is cell-based, rat. As for the experimental part:
as §2, §3, §1

Like-named read-outs stand apart in the source and are kept apart here. Marks after values point to notes of the source that are not given here.

In the case of `CCCCCCCCCCCC1=C(O)C(=O)c2c(nc3ccccc3c2-c2ccc([N+](=O)[O-])cc2)C1=O` [Compound 6a, 2-Hydroxy-9-(4-nitrophenyl)-3-undecylacridine-1,4-dione], the “ROS production on co-treatment with DOX” value with ROS in H9c2 cells was “significantly inhibited ROS production”. The “Effect on antitumor (chemotherapeutic) activity of DOX” value (“Effect on antitumor” below) in data set [1] is reported as “without reducing DOX’s chemotherapeutic effect”. In data set [2], the IC50 – broadly, the midpoint of a concentration-inhibition curve – at 24 h is more than 40 µM; the viability – broadly, a per cent measure of how many cells are alive, often set against a control – at 24 h, 10 µM was determined as 96.3 ± 2.1%; the viability at 24 h, 20 µM is 76.9 ± 2.8%. In data set [3], the IC50 at 24 h was more than 40 µM; the viability at 24 h, 10 µM worked out at 97.6 ± 7%; the viability at 24 h, 20 µM came out at 87.8 ± 6.9%.

Turning to `CCCCCCCCCCCC1=C(O)C(=O)c2c(nc3ccc(Br)cc3c2-c2ccc([N+](=O)[O-])cc2)C1=O` [Compound 6m, 7-Bromo-2-hydroxy-9-(4-nitrophenyl)-3-undecylacridine-1,4-dione], the “ROS production on co-treatment with DOX” value in the data set on ROS in H9c2 cells is “significantly inhibited ROS production”. Further, the “Effect on antitumor” value in data set [1] is recorded as “without reducing DOX’s chemotherapeutic effect”. In data set [2], this molecule registered an IC50 at 24 h of more than 40 µM; a viability at 24 h, 10 µM of 99.6 ± 4.6%; a viability at 24 h, 20 µM of 86.4 ± 8.7%. In data set [3], the IC50 at 24 h is more than 40 µM; the viability at 24 h, 10 µM was determined as 89.8 ± 7.6%; the viability at 24 h, 20 µM is 85.9 ± 8.2%.

As for `CCCCCCCCCCCC1=C(O)C(=O)c2c(nc3ccccc3c2-c2ccc(Br)cc2)C1=O` [Compound 6d, 2-Hydroxy-9-(4-bromophenyl)-3-undecylacridine-1,4-dione], the “ROS production on co-treatment with DOX” value in the data set on ROS in H9c2 cells is listed as “significantly inhibited ROS production”. Besides, the “Effect on antitumor” value in data set [1] is “without reducing DOX’s chemotherapeutic effect”. In data set [2], this molecule yielded an IC50 at 24 h of more than 40 µM; a viability at 24 h, 10 µM of 82.1 ± 3.7%; a viability at 24 h, 20 µM of 74.5 ± 3.9%. Moreover, in data set [3], the IC50 at 24 h was more than 40 µM; the viability at 24 h, 10 µM was found to be 99.4 ± 0.2%; the viability at 24 h, 20 µM was determined as 99.3 ± 2.6%.

`CCCCCCCCCCCC1=C(O)C(=O)C2=C(Nc3ccccc3C2c2ccsc2)C1=O` (stereo not drawn) [Compound 4h, 2-Hydroxy-9-(thiophen-3-yl)-3-undecyl-9,10-dihydroacridine-1,4-dione]: the melting point – broadly, the temperature of the solid-liquid transition – lay within 190 to 192 °C. In data set [2], this molecule returned a viability at 24 h, 10 µM of 84.9 ± 2.6% and a viability at 24 h, 20 µM of 51.4 ± 2.9%. For the same molecule, in data set [3], the viability at 24 h, 10 µM was 92.5 ± 6.6% and the viability at 24 h, 20 µM was 75.8 ± 2.3%.

As to “2-Hydroxy-7-methoxy-9-(4-nitrophenyl)-3-undecylacridine-1,4-dione [Compound 6k]”, the “ROS production on co-treatment with DOX” value in the data set on ROS in H9c2 cells was “significantly inhibited ROS production”. Moreover, the “Effect on antitumor” value in data set [1] was “without reducing DOX’s chemotherapeutic effect”. In the data set with J774 macrophages, the “Cell viability (%) J774 macrophages 10 μM” value is 81.9 ± 4.6 ^e %, the “Cell viability (%) J774 macrophages 20 μM” value is on record as 76.3 ± 5.3 ^e % and the IC50 is more than 40 µM. In addition, in the data set on H9c2 cardiomyocytes, the “Cell viability (%) H9c2 cardiomyocytes 10 μM” value came to 99.2 ± 0.8%, the “Cell viability (%) H9c2 cardiomyocytes 20 μM” value was determined as 94.4 ± 6.3% and the IC50 is more than 40000 nM.

`CCCCCCCCCCCC1=C(O)C(=O)C2=C(Nc3cc(C)cc(C)c3C2c2ccc([N+](=O)[O-])cc2)C1=O` (stereo not drawn) [Compound 4l, 2-Hydroxy-6,8-dimethyl-9-(4-nitrophenyl)-3-undecyl-9,10-dihydroacridine-1,4-dione]: the melting point lay in the range of 260 to 262 °C. In data set [2], this molecule yielded a viability at 24 h, 10 µM of 46.7 ± 6.6% and a viability at 24 h, 20 µM of 33.1 ± 4.5%. In data set [3], this molecule registered a viability at 24 h, 10 µM of 98.2 ± 6.6% and a viability at 24 h, 20 µM of 88.3 ± 6.1%.

In turn, `CCCCCCCCCCCC1=C(O)C(=O)C2=C(Nc3ccc(Br)cc3C2c2ccc([N+](=O)[O-])cc2)C1=O` (stereo not drawn) [Compound 4m, 7-Bromo-2-hydroxy-9-(4-nitrophenyl)-3-undecyl-9,10-dihydroacridine-1,4-dione] displayed a melting point of 236 to 237 °C. Further, in data set [2], the IC50 at 24 h was more than 40 µM; the viability at 24 h, 10 µM was 94.7 ± 4.2%; the viability at 24 h, 20 µM was found to be 77.2 ± 4.9%. In data set [3], this molecule returned an IC50 at 24 h of more than 40 µM; a viability at 24 h, 10 µM of 96.5 ± 5.5%; a viability at 24 h, 20 µM of 96.2 ± 4.8%.

In turn, `CCCCCCCCCCCC1=C(O)C(=O)C2=C(Nc3ccccc3C2c2ccc(C)c(C)c2)C1=O` (stereo not drawn) [Compound 4i, 2-Hydroxy-9-(3,4-dimethylphenyl)-3-undecyl-9,10-dihydroacridine-1,4-dione] had a melting point of 106 to 108 °C. In addition, in the data set on ROS in H9c2 cells, the “ROS production on co-treatment with DOX” value is reported as “significantly inhibited ROS production”. For the same molecule, the “Effect on antitumor” value in data set [1] is recorded as “without reducing DOX’s chemotherapeutic effect”. In addition, in data set [2], the IC50 at 24 h was more than 40 µM; the viability at 24 h, 10 µM amounted to 96.2 ± 6.8%; the viability at 24 h, 20 µM stood at 72.6 ± 1.7%. In data set [3], this molecule came in with an IC50 at 24 h of more than 40 µM; a viability at 24 h, 10 µM of 84.3 ± 6.8%; a viability at 24 h, 20 µM of 82.2 ± 6.2%.

`CCCCCCCCCCCC1=C(O)C(=O)C2=C(Nc3ccccc3C2c2ccc(OC)c(OC)c2)C1=O` (stereo not drawn) [Compound 4j, 2-Hydroxy-9-(3,4-dimethoxyphenyl)-3-undecyl-9,10-dihydroacridine-1,4-dione]: the melting point lay within 152 to 154 °C. In data set [2], this molecule showed a viability at 24 h, 10 µM of 89.1 ± 5.5% and a viability at 24 h, 20 µM of 36.9 ± 3.8%. Besides, in data set [3], the viability at 24 h, 10 µM stood at 68.9 ± 3.6% and the viability at 24 h, 20 µM is 60.6 ± 4.9%.

For the molecule `COc1cccc2c1C(=O)c1c(O)c3c(c(O)c1C2=O)C[C@@](O)(C(=O)CO)C[C@@H]3O[C@H]1C[C@H](N)[C@H](O)[C@H](C)O1` [DOX, Doxorubicin, reference compound], in the data set on ROS in H9c2 cells (DOX 1 μM alone), the “Levels of ROS compared to untreated cells” value is “significantly increased the levels of ROS”. Moreover, the concentration for half-maximal inhibition (IC50) in the data set with H9c2 cardiomyocytes (Rattus norvegicus, H9c2 cardiomyocytes, 24 h, MTT, read-out: IC50 (loss in cell viability, DOX-treated vs untreated cells)) stood at 830 nM.

With `CCCCCCCCCCCC1=C(O)C(=O)C2=C(Nc3ccccc3C2c2ccccc2)C1=O` (stereo not drawn) [Compound 4b, 2-Hydroxy-9-phenyl-3-undecyl-9,10-dihydroacridine-1,4-dione], the melting point lay within 161 to 162 °C. In data set [2], the IC50 at 24 h was more than 40 µM; the viability at 24 h, 10 µM turned out to be 99.7 ± 1.1%; the viability at 24 h, 20 µM came out at 98.7 ± 1.2%. Also, in data set [3], the IC50 at 24 h is more than 40 µM; the viability at 24 h, 10 µM was determined as 98.1 ± 6.8%; the viability at 24 h, 20 µM came out at 95.8 ± 7.7%.
